Test system: HCV 1b_Huh-Luc/Neo-ET cell line (genotype 1b replicon in Huh 7 cells)
Assay: HCV replicon assay (luciferase readout)
Type: cell-based
Settings: Hepatitis C virus, HCV 1b replicon in Huh 7 cells, 72 h incubation, EC50 range class, read-out: Inhibition of HCV genotype 1b
Procedure, shortened: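 Huh 7 cells stably carrying a bicistronic genotype 1b luciferase replicon were treated in triplicate the day after plating and incubated 72 h before luciferase read-out. Signal was expressed as % of untreated control, and EC50 was fitted by four-parameter logistic and averaged over repeat determinations.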

Row | SMILES | EC50 [nM]
1 | COC(=O)N[C@H](C(=O)N1CCC[C@H]1c1ncc(-c2ccc3c(c2)CN(C)c2ccc(-c4cnc([C@@H]5CCCN5C(=O)[C@@H](NC(=O)OC)C(C)C)[nH]4)cc2CN3C)[nH]1)C(C)C [Example 13] | < 1
2 | COC(=O)N[C@H](C(=O)N1CCC[C@H]1c1ncc(-c2ccc3c(c2)Oc2ccc(-c4cnc([C@@H]5CCCN5C(=O)[C@@H](NC(=O)OC)C(C)C)[nH]4)cc2C(=O)N3)[nH]1)C(C)C [Example 14] | 10 to 999
3 | COC(=O)N[C@H](C(=O)N1CCC[C@H]1c1ncc(-c2ccc3c(=O)c4cc(-c5cnc([C@@H]6CCCN6C(=O)[C@H](NC(=O)OC)c6ccccc6)[nH]5)ccc4oc3c2)[nH]1)C(C)C [Example 15] | < 1
4 | COC(=O)N[C@H](C(=O)N1CCC[C@H]1c1ncc(-c2ccc3c(=O)c4cc(-c5cnc([C@@H]6CCCN6C(=O)[C@@H](NC(=O)OC)C6CCOCC6)[nH]5)ccc4oc3c2)[nH]1)C(C)C [Example 16] | < 1
5 | COC(=O)N[C@H](C(=O)N1CCC[C@H]1c1ncc(-c2ccc3oc4cc(-c5cnc([C@@H]6CCCN6C(=O)[C@@H](NC(=O)OC)C6CCOCC6)[nH]5)ccc4c(=O)c3c2)[nH]1)C(C)C [Example 17] | < 1
6 | COC(=O)N[C@H](C(=O)N1CCC[C@H]1c1ncc(-c2ccc3oc4cc(-c5cnc([C@@H]6CCCN6C(=O)[C@H](NC(=O)OC)c6ccccc6)[nH]5)ccc4c(=O)c3c2)[nH]1)C(C)C [Example 18] | < 1
7 | COC(=O)N[C@H](C(=O)N1CCC[C@H]1c1ncc(-c2ccc3c(=O)c4cc(-c5cnc([C@@H]6CCCN6C(=O)[C@H](NC(=O)OC6CCOCC6)c6ccccc6)[nH]5)ccc4oc3c2)[nH]1)C(C)C [Example 19] | < 1
8 | COC(=O)N[C@@H](C)C(=O)N1CCC[C@H]1c1ncc(-c2ccc3oc4cc(-c5cnc([C@@H]6CCCN6C(=O)[C@@H](NC(=O)OC)C(C)C)[nH]5)ccc4c(=O)c3c2)[nH]1 [Example 20] | < 1
9 | COC(=O)N[C@H](C(=O)N1CCC[C@H]1c1ncc(-c2ccc3oc4cc(-c5cnc([C@@H]6CCCN6C(=O)[C@H](NC(=O)OC6CCOCC6)c6ccccc6)[nH]5)ccc4c(=O)c3c2)[nH]1)C(C)C [Example 21] | < 1
10 | COC(=O)N[C@H](C(=O)N1CCC[C@H]1c1ncc(-c2ccc3oc4cc(-c5cnc([C@@H]6CCCN6C(=O)[C@@H](NC(=O)OC)C(C)C)[nH]5)c(F)cc4c(=O)c3c2)[nH]1)C(C)C [Example 22] | < 1
11 | COC(=O)N[C@H](C(=O)N1CCC[C@H]1c1ncc(-c2ccc3oc4cc(-c5cnc([C@@H]6CCCN6C(=O)[C@@H](NC(=O)OC)C6CCOCC6)[nH]5)c(F)cc4c(=O)c3c2)[nH]1)C1CCOCC1 [Example 23] | < 1
12 | COC(=O)N[C@@H](C(=O)N1CCC[C@H]1c1ncc(-c2ccc3oc4cc(-c5cnc([C@@H]6CCCN6C(=O)[C@H](NC(=O)OC)c6ccccc6)[nH]5)c(F)cc4c(=O)c3c2)[nH]1)c1ccccc1 [Example 24] | < 1
13 | O=C(N[C@@H](C(=O)N1CCC[C@H]1c1ncc(-c2ccc3oc4cc(-c5cnc([C@@H]6CCCN6C(=O)[C@H](NC(=O)OC6CCOCC6)c6ccccc6)[nH]5)c(F)cc4c(=O)c3c2)[nH]1)c1ccccc1)OC1CCOCC1 [Example 25] | < 1
14 | COC(=O)N[C@H](C(=O)N1CCC[C@H]1c1ncc(-c2ccc3c(c2)Oc2ccc(-c4cnc([C@@H]5CCCN5C(=O)[C@@H](NC(=O)OC)C(C)C)[nH]4)cc2C32CC2)[nH]1)C(C)C [Example 26] | < 1
15 | COC(=O)N[C@H](C(=O)N1CCC[C@H]1c1ncc(-c2cc3oc4ccc(-c5cnc([C@@H]6CCCN6C(=O)[C@H](NC(=O)OC)c6ccccc6)[nH]5)cc4c(=O)c3cc2F)[nH]1)C(C)C [Example 27] | < 1
16 | COC(=O)N[C@H](C(=O)N1CCC[C@H]1c1ncc(-c2cc3oc4ccc(-c5cnc([C@@H]6CCCN6C(=O)[C@@H](NC(=O)OC)C6CCOCC6)[nH]5)cc4c(=O)c3cc2F)[nH]1)C(C)C [Example 28] | < 1
17 | COC(=O)N[C@H](C(=O)N1CCC[C@H]1c1ncc(-c2cc3c(cc2F)Cc2cc(-c4cnc([C@@H]5CCCN5C(=O)[C@@H](NC(=O)OC)[C@@H](C)OC)[nH]4)ccc2O3)[nH]1)C(C)C [Example 29] | < 1
